Experimental data as given in article PMC10019194, “Killing Two Birds with One Stone: Discovery of Dual Inhibitors of Oxygen and Fumarate Respiration in Zoonotic Parasite, Echinococcus multilocularis” (Antimicrobial Agents and Chemotherapy, 2023).
“Also recorded” adds a separate entry of the source. Where two headings read alike, the source gives them in different places.

Legend:
[1] = biological target: complex I (NADH:quinone reductase) (Echinococcus multilocularis, UniProt A0A068Y553+A0A068Y9L9+Q9TE76); assay: NADH:quinone reductase activity (complex I) in protoscoleces mitochondrial fraction; type: biochemical; settings: for IC50: E. multilocularis protoscoleces mitochondria, read-out: IC50 NADH:decyl rhodoquinone reductase (complex I)
Description: (§1) Cyst tissues containing E. multilocularis (Nemuro strain) protoscoleces isolated from infected hispid cotton rats, Sigmodon hispidus, were used. The tissues were shredded through a metal mesh (0.5 mm diameter). Then, the tissues were repeatedly suspended and washed with physiological saline in a tall beaker to obtain protoscoleces by exploiting the buoyancy difference between protoscoleces and other tissue ([26]). The obtained protoscoleces were homogenized with a motor-driven homogenizer to prepare the mitochondrial fraction. The homogenate was diluted with mitochondrial preparation buffer (210 mM mannitol, 10 mM sucrose, 1 mM disodium EDTA, and 50 mM Tris-HCl [pH 7.5]) supplemented with 10 mM sodium malonate to 5 times the volume of the original protoscolex homogenate, and then centrifuged at 800 × g for 10 min (4°C) to remove cell debris and nuclei. The supernatant was then centrifuged at 8,000 × g for 10 min (4°C) to obtain the mitochondrial pellet. Next, the pellet was resuspended in mitochondrial preparation buffer (without malonate) and centrifuged at 8,000 × g for 10 min (4°C). The enriched mitochondrial fraction was finally suspended in approximately 0.5 to 1.0 mL of mitochondrial preparation buffer without malonate and frozen at −50°C. The mitochondrial fraction from A. suum was prepared essentially as described previously ([27], [28]).
NADH:quinone reductase activity (complex I), succinate:quinone reductase activity (complex II), and succinate:cytochrome c reductase activity (complexes II to III) were measured using a UV-3000 spectrophotometer (Shimadzu, Kyoto, Japan) as described previously ([4], [6]). Briefly, all enzyme assays using mitochondrial fractions were performed in 0.5- or 1.0-mL reaction mixtures at 25°C. A freeze/thaw process was performed before the assay to ensure that the mitochondrial membrane was permeable to the solutes. The final mitochondrial protein concentration was 50 μg/mL. NADH:quinone reductase activity was measured in 50 mM potassium phosphate buffer (pH 7.4) containing 2 mM potassium cyanide, KCN (Sigma, St. […] The activity assay was started by the addition of 50 μM NADH (Fujifilm-Wako, Tokyo, Japan) and recorded as the rate of NADH consumption as monitored at 340 nm (ε = 6.2 mM^−1 cm^−1). The reagents used in the SQR activity assay were mixed with the reaction buffer containing 50 mM potassium phosphate (pH 7.4) and 0.1% (wt/vol) sucrose monolaurate (DOJINDO, Kumamoto, Japan). […] The reaction was initiated by the addition of 10 mM disodium succinate to the mixture. NADH:cytochrome c activity (complex I to III) was measured in the reaction buffer (30 mM potassium phosphate, 1 mM MgCl2, pH 7.5) containing 2 mM KCN, 50 μM cytochrome c (Nacalai Tesque, Kyoto, Japan), and the inhibitor. The assay was performed after the addition of 100 mM malonate to block complex II activity. The reaction was started by adding 50 μM NADH to the mixture, and the enzyme activity was determined by monitoring the change in absorbance of cytochrome c at 550 nm (ε = 19 mM^−1 cm^−1). IC50 values of AF and its derivatives against the specific activities of mitochondrial respiratory enzymes in protoscoleces were determined. The IC50 of each compound was determined by calculating approximation lines from three or more points on either side of the IC50 concentration.

[2] = biological target: complex II (succinate:quinone reductase, SQR) (Echinococcus multilocularis, UniProt A0A1Z4EAW8+A0A1Z4EAX0+A0A1Z4EAX1); assay: Succinate:quinone reductase (SQR) activity (complex II) in protoscoleces mitochondrial fraction; type: biochemical
Sequence of complex II (succinate:quinone reductase, SQR) (A0A1Z4EAV8 entry or part of it): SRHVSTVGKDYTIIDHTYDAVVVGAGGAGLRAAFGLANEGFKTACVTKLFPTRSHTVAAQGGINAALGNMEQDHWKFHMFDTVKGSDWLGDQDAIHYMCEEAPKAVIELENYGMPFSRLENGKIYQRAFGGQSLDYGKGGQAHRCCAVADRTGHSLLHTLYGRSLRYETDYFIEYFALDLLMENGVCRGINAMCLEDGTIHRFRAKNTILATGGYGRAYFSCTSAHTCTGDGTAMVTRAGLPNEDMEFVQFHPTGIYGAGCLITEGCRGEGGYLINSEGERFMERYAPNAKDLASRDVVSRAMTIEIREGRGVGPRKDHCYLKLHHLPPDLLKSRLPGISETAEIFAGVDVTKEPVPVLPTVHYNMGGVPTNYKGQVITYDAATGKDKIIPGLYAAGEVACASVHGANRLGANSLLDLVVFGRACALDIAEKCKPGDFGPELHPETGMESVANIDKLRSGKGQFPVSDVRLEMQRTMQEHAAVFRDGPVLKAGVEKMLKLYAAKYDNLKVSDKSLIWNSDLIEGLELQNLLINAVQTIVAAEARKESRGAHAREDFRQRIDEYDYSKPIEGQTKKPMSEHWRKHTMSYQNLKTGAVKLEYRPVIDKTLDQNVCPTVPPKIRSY
Sequence of complex II (succinate:quinone reductase, SQR) (A0A1Z4EAX1 entry or part of it): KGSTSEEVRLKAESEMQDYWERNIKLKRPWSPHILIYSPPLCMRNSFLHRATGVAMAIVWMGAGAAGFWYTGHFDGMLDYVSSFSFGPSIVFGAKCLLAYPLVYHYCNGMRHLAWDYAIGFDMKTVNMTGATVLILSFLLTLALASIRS
Sequence of complex II (succinate:quinone reductase, SQR) (A0A1Z4EAX0 entry or part of it): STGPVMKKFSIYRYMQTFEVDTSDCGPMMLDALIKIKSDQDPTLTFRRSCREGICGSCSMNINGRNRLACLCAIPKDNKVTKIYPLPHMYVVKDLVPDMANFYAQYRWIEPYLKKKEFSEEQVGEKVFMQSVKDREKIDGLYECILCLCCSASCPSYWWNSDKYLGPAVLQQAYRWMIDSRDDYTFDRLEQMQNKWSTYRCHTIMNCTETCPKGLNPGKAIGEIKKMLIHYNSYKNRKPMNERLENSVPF
Sequence of complex II (succinate:quinone reductase, SQR) (A0A1Z4EAW8 entry or part of it): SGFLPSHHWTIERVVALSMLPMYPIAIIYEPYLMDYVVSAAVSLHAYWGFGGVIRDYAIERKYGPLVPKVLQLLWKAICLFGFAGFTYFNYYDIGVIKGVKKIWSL
Description: as §1
(§2) NADH:quinone reductase activity (complex I), succinate:quinone reductase activity (complex II), and succinate:cytochrome c reductase activity (complexes II to III) were measured using a UV-3000 spectrophotometer (Shimadzu, Kyoto, Japan) as described previously ([4], [6]). Briefly, all enzyme assays using mitochondrial fractions were performed in 0.5- or 1.0-mL reaction mixtures at 25°C. A freeze/thaw process was performed before the assay to ensure that the mitochondrial membrane was permeable to the solutes. The final mitochondrial protein concentration was 50 μg/mL. NADH:quinone reductase activity was measured in 50 mM potassium phosphate buffer (pH 7.4) containing 2 mM potassium cyanide, KCN (Sigma, St. Louis, MO, USA), and 60 μM decylubiquinone (Sigma). The activity assay was started by the addition of 50 μM NADH (Fujifilm-Wako, Tokyo, Japan) and recorded as the rate of NADH consumption as monitored at 340 nm (ε = 6.2 mM^−1 cm^−1). The reagents used in the SQR activity assay were mixed with the reaction buffer containing 50 mM potassium phosphate (pH 7.4) and 0.1% (wt/vol) sucrose monolaurate (DOJINDO, Kumamoto, Japan). SQR activity was determined by monitoring the change in absorbance of quinone at 278 nm (ε = 15 mM^−1 cm^−1) in the presence of 60 μM decylubiquinone, 2 mM KCN, and the inhibitor. The reaction was initiated by the addition of 10 mM disodium succinate to the mixture. NADH:cytochrome c activity (complex I to III) was measured in the reaction buffer (30 mM potassium phosphate, 1 mM MgCl2, pH 7.5) containing 2 mM KCN, 50 μM cytochrome c (Nacalai Tesque, Kyoto, Japan), and the inhibitor. The assay was performed after the addition of 100 mM malonate to block complex II activity. The reaction was started by adding 50 μM NADH to the mixture, and the enzyme activity was determined by monitoring the change in absorbance of cytochrome c at 550 nm (ε = 19 mM^−1 cm^−1). IC50 values of AF and its derivatives against the specific activities of mitochondrial respiratory enzymes in protoscoleces were determined. The IC50 of each compound was determined by calculating approximation lines from three or more points on either side of the IC50 concentration.

[3] = biological target: complex I and III (NADH:cytochrome c reductase) (Echinococcus multilocularis, UniProt Q9TE80); assay: NADH:cytochrome c reductase activity (complex I to III) in protoscoleces mitochondrial fraction; type: biochemical
Sequence of complex I and III (NADH:cytochrome c reductase) (Q9TE80 entry or part of it): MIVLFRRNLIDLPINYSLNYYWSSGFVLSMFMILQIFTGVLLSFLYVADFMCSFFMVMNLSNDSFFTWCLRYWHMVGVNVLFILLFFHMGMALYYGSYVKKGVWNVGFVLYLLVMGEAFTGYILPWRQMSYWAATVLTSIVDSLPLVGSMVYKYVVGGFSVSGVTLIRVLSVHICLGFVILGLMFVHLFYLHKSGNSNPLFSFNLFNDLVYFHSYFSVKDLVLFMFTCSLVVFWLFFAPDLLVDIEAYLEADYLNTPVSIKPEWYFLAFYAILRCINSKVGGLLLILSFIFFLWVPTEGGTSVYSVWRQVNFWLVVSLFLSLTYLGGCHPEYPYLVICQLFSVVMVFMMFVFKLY
Sequence of complex I and III (NADH:cytochrome c reductase) (Q9GP40 whole entry, further chain): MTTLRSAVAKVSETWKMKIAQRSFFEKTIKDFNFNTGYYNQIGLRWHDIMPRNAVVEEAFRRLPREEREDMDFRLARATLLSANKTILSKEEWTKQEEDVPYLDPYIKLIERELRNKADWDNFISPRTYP
Sequence of complex I and III (NADH:cytochrome c reductase) (Q9TE76 entry or part of it, further chain): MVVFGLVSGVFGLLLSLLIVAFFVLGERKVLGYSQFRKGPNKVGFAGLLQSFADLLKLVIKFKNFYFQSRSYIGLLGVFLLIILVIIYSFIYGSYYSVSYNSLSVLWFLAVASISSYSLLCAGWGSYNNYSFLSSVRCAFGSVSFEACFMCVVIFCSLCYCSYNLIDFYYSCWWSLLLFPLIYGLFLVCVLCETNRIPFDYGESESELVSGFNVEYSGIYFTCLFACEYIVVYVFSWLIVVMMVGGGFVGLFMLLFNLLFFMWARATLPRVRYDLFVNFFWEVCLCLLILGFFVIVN
Description: as §1, §2

[4] = tested on: E. multilocularis protoscoleces; assay: Ex vivo culture assay of live protoscoleces, viability by trypan blue exclusion; type: cell-based, Echinococcus multilocularis; settings: 50 μM
Protocol: FIG 5 Viability of E. multilocularis protoscoleces in ex vivo culture assay. The E. multilocularis protoscoleces were treated with ascofuranone (AF) and its derivatives in culture under aerobic and anaerobic conditions (O2 <0.3%). Each compound was added to the culture medium at a final concentration of 50 μM. The control group was supplemented with 0.5% (vol/vol) dimethyl sulfoxide (DMSO). Atovaquone (ATV) was used as positive control and to ensure anaerobic conditions in the culture. The viability of protoscoleces was evaluated by their ability to exclude trypan blue. The data are presented as the mean ± standard deviation (n = 3).
The obtained protoscoleces were cultured in Connaught Medical Research Laboratories 1066 medium (Gibco, Grand Island, NY, USA) containing 0.5% (wt/vol) yeast extract (Difco Laboratories, Detroit, MI, USA), 2 mM L-glutamine (Gibco), 23 mM 4-(2-hydroxyethyl)-1-piperazineethanesulfonic acid, 0.5% (wt/vol) D (+)-glucose, 0.4 mM sodium taurocholate (Wako Pure Chemical Industries, Osaka, Japan), 57 mM sodium hydrogen carbonate, and 100 U/mL penicillin-streptomycin (Gibco). The protoscoleces were observed daily for seven consecutive days, and half of the medium was replaced on day 3. For anaerobic cultures, six-well plates were sealed in plastic containers with oxygen-detecting agents and oxygen scavengers (Aneromeito, Nissui Pharmaceutical, Tokyo, Japan) to keep the oxygen concentration below 0.3% at 37°C. The protoscoleces were treated with AF and its derivatives at a final concentration of 50 μM in the culture medium, and the duration of parasite elimination was investigated. The control group was supplemented with 0.5% (vol/vol) dimethyl sulfoxide (DMSO), and all conditions were assayed in triplicate. We used ATV in a culture assay as positive control and to ensure anaerobic conditions in the culture ([4], [5]). […] The viability of protoscoleces was determined after microscopic observation of more than 170 protoscoleces per well using the trypan blue exclusion test, as described previously ([4], [6], [33]).

[5] = IC50, E. multilocularis SQR inhibition, Table 5, furanone ring-substituted derivatives, mean ± SEM
[6] = IC50, inhibition of E. multilocularis SQR, Table 2, substitutions on the benzene group, mean ± SEM
[7] = IC50 Succinate:quinone reductase (SQR) (complex II), E. multilocularis protoscoleces mitochondria, mean ± SEM, Table 1
[8] = IC50 against E. multilocularis SQR, Table 3, various side chain lengths, mean ± SEM
[9] = E. multilocularis protoscoleces mitochondria; mean ± SEM; Table 1; read-out: IC50 NADH:cytochrome c reductase (complex I and III)
[10] = IC50, inhibition of E. multilocularis SQR, Table 4, different linker structures, mean ± SEM
[11] = IC50 against E. multilocularis complex II (SQR), figure legends, supplement

C/C(=C\Cc1c(O)c(Cl)c(C)c(C=O)c1O)CC/C=C(\C)[C@@H]1CC(=O)C(C)(C)O1 [AF, Ascofuranone]
inhibition of NADH:ubiquinone reductase activity of complex I [1]: not inhibited
IC50 [1]: > 50000 nM
IC50 [2, 5]: 1100 ± 210 nM
IC50 [2, 6]: 1100 ± 210 nM
IC50 [2, 7]: 1100 ± 210 nM
IC50 ([3]; read-out: IC50 NADH:cytochrome c reductase (complex I and III); E. multilocularis protoscoleces mitochondria; mean ± SEM; Table 1): 57 ± 11 nM
viability of protoscoleces during treatment ([4]; aerobic culture): progressively reduced
viability / killing of protoscoleces during treatment ([4]; anaerobic culture (O2 <0.3%)): progressively reduced; also recorded: strong killing effect
antiparasitic effect on protoscoleces in culture assay ([4]; both anaerobic and aerobic conditions): strong antiparasitic effect

Cc1c(Cl)c(O)cc(O)c1C=O [Compound C0]
IC50 [2, 8]: > 20000 nM

C/C=C/c1c(O)c(Cl)c(C)c(C=O)c1O [Compound C3]
IC50 [2, 8]: 5400 ± 700 nM

CCC/C=C/c1c(O)c(Cl)c(C)c(C=O)c1O [Compound C5]
IC50 [2, 8]: 3300 ± 270 nM

CCCCC/C=C/c1c(O)c(Cl)c(C)c(C=O)c1O [Compound C7]
IC50 [2, 8]: 950 ± 270 nM

CCCCCCC/C=C/c1c(O)c(Cl)c(C)c(C=O)c1O [Compound C9]
IC50 [2, 8]: 1200 ± 120 nM

CCCCCCCC/C=C/c1c(O)c(Cl)c(C)c(C=O)c1O [Compound C10]
IC50 [2, 8]: 1200 ± 80 nM

CCCCCCCCCC/C=C/c1c(O)c(Cl)c(C)c(C=O)c1O [Compound C12]
IC50 [2, 8]: 1700 ± 720 nM

CC(C)=CCC/C(C)=C/CC/C(C)=C/Cc1c(O)c(Cl)cc(C=O)c1O [Compound D1]
IC50 [1]: > 50000 nM
IC50 [2, 7]: 88 ± 13 nM
IC50 [3, 9]: 274 ± 25 nM

CC(=O)c1c(C)c(Cl)c(O)c(C/C=C(\C)CC/C=C(\C)CCC=C(C)C)c1O [Compound D3]
IC50 [1]: > 50000 nM
IC50 [2, 7]: 135 ± 14 nM
IC50 [3, 9]: 14 ± 2 nM

CC(=O)c1c(C)c(Cl)c(O)c(C/C=C(\C)CCC=C(C)C)c1O [Compound D6]
IC50 [2, 6]: 210 ± 22 nM

CC(C)=CCC/C(C)=C/Cc1c(O)c(Cl)c(C)c(C=O)c1O [Compound D7]
increase of SQR IC50 compared to D6 ([2]; 1-aldehyde (D7) vs 1-acetyl (D6)): 2 fold

CC(C)=CCC/C(C)=C/Cc1c(O)cc(C)c(C=O)c1O [Compound D8]
IC50 [2, 6]: > 10000 nM

COC(=O)c1c(C)c(Cl)c(O)c(C/C=C(\C)CCC=C(C)C)c1O [Compound D9]
IC50 [2, 6]: > 10000 nM

C/C(=C\Cc1c(O)c(Cl)cc(C=O)c1O)CC/C=C(\C)C1CC(=O)C(C)(C)O1 (stereo not drawn) [Compound D10]
IC50 [2, 6]: 550 ± 130 nM

COc1c(Cl)c(C)c(C=O)c(O)c1C/C=C(\C)CC/C=C(\C)C1CC(=O)C(C)(C)O1 (stereo not drawn) [Compound D11]
SQR inhibitory activity ([2]; 4-OH changed to methoxy): inhibitory activity was lost
IC50 [2, 6]: > 10000 nM

CC(C)=CCC/C(C)=C/Cc1c(O)c(Cl)c(C)c(C=O)c1O [Compound D12]
IC50 [2, 10]: 570 ± 30 nM

Cc1c(Cl)c(O)c(CCC(C)CCCC(C)C)c(O)c1C=O (stereo not drawn) [Compound D13]
IC50 [2, 10]: 280 ± 50 nM

CCCCCC(C)CCc1c(O)c(Cl)c(C)c(C=O)c1O (stereo not drawn) [Compound D14]
IC50 [2, 10]: 540 nM

CCCCCCCCc1c(O)c(Cl)c(C)c(C=O)c1O [Compound D15]
IC50 [2, 10]: 890 ± 110 nM

C#CCOC/C(C)=C/CC/C(C)=C/Cc1c(O)c(Cl)c(C)c(C=O)c1O [Compound D16]
IC50 [2, 5]: 258 ± 72 nM
IC50 [2, 11]: 250 nM

C/C(=C\Cc1c(O)c(Cl)c(C)c(C=O)c1O)CC/C=C(\C)COC(=O)C(C)(C)C [Compound D17]
IC50 [2, 5]: 488 ± 15 nM
IC50 [2, 11]: 480 nM

C/C(=C\Cc1c(O)c(Cl)c(C)c(C=O)c1O)CC/C=C(\C)C(C)O (stereo not drawn) [Compound D18]
IC50 ([2]; read-out: IC50, E. multilocularis SQR inhibition, Table 5, furanone ring-substituted derivatives, mean ± SEM): 3770 ± 980 nM

C/C(=C\CC/C(C)=C/Cc1c(O)c(Cl)c(C)c(C=O)c1O)CO [Compound D19]
IC50 [2, 5]: > 10000 nM
